Laboratory results as given in article PMC3274641 (Bioorganic & medicinal chemistry letters, 2011).
“Also recorded” adds a separate entry of the source. Like-named read-outs stand apart in the source and are kept apart here.

Columns and labels:
Hα3β4 nAChRs [1] = biological target: T1, Hα3β4 nAChRs (Homo sapiens, UniProt P30926+P32297); conditions: scaffolds; previously reported data; cited from earlier work
Hα4β2 nAChRs [2] = biological target: T2, Hα4β2 nAChRs (Homo sapiens, UniProt P17787+P43681); conditions: scaffolds; previously reported data; cited from earlier work
T2 sequence (P43681 29-627 limits assumed): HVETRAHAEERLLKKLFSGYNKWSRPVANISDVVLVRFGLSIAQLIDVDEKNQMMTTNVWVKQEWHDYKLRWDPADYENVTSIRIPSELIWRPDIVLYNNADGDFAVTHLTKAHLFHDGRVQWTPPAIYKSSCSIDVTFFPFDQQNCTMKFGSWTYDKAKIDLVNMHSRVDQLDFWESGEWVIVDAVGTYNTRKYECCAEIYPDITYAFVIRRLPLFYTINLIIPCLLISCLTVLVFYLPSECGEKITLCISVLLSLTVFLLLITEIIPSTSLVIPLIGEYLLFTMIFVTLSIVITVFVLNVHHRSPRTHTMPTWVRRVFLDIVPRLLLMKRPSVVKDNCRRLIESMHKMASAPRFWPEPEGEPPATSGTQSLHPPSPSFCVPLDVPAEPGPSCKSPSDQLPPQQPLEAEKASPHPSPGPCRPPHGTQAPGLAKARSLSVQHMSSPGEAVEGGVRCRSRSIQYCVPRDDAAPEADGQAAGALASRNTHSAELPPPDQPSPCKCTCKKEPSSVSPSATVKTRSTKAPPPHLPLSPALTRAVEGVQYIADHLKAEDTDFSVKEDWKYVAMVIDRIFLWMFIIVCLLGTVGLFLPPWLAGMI
T2 sequence (P17787 26-502): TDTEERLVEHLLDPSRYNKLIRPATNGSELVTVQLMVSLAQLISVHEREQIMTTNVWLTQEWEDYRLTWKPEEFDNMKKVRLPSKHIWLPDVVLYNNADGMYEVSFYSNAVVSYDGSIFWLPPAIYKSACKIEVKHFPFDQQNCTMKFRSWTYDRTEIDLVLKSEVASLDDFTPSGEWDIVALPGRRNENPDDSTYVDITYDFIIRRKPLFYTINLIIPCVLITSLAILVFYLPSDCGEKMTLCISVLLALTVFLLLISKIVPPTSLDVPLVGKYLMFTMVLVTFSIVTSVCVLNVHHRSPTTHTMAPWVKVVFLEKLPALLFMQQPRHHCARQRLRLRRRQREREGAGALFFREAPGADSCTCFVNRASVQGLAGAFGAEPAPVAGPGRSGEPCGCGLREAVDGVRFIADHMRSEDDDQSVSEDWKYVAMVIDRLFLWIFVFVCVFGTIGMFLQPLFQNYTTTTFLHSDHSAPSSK

Hα3β4 nAChRs [3] = biological target: T1, Hα3β4 nAChRs; test: Inhibition of Hα3β4 nAChRs by NAMs; type: cell-based; conditions: for change in potency on Hα3β4 nAChRs compared to scaffolds (in words): scaffolds KAB-18, KAB-24, COB-4, respectively
Hα4β2 nAChRs [4] = biological target: T2, Hα4β2 nAChRs; test: cell-based; type: cell-based; conditions: for fold more potent than lead molecule KAB-18: Hα4β2 nAChRs
[5] = at the 1 year mark; agonist-antagonist therapy in combination with the nicotine patch; cited from earlier work

T1 sequence (P32297 32-505): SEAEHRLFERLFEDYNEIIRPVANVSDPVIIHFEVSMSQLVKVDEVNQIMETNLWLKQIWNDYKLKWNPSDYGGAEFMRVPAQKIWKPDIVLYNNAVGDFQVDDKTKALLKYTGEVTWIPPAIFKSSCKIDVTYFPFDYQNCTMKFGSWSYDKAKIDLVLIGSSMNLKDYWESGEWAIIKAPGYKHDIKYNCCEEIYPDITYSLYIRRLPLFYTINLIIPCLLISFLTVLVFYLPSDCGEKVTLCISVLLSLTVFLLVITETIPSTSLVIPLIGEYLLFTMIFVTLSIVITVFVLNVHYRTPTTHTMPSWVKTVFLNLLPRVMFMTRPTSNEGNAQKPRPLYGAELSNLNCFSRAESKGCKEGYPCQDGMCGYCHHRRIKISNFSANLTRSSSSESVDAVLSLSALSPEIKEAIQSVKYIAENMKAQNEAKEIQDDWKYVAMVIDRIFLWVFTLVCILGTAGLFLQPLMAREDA
T1 sequence (P30926 22-498): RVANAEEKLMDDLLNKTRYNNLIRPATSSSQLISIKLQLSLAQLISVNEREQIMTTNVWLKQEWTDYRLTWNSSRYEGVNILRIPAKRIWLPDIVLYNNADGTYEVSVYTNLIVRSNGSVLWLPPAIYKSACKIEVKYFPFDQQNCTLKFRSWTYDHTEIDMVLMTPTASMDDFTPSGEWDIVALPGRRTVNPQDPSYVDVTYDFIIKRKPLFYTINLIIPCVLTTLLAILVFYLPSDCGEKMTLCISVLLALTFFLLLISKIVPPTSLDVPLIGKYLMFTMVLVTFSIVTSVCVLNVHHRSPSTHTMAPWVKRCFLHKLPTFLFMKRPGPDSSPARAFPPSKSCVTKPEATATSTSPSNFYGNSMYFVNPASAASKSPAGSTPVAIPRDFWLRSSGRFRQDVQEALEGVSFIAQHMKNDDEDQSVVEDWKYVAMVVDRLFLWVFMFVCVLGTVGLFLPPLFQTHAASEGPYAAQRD

SMILES: O=C(OCC1CCN(CCCc2ccccc2)CC1)c1ccccc1-c1ccccc1 [COB-4]
- nH, Hill coefficient, Hα3β4 nAChRs (Hα3β4 nAChRs [1]): −1.0
- nH, Hill coefficient, Hα4β2 nAChRs (Hα4β2 nAChRs [2]): −0.8

SMILES: O=C(NCc1ccccc1)c1ccccc1-c1ccccc1 [COB-170]
- IC50 (Hα3β4 nAChRs [3]): 8.5 µM
- nH, Hill coefficient, Hα3β4 nAChRs (Hα3β4 nAChRs [3]; COB series): −1.8
- selectivity for Hα4β2 nAChRs over Hα3β4 nAChRs (in words) (Hα4β2 nAChRs [4]): nonselective
- nH, Hill coefficient, Hα4β2 nAChRs (Hα4β2 nAChRs [4]; COB series): −1.1
- fold more potent than lead molecule KAB-18 (Hα4β2 nAChRs [4]): 2 fold

SMILES: O=C(Nc1ccccc1)c1ccccc1-c1ccccc1 [COB-171]
- nH, Hill coefficient, Hα3β4 nAChRs (Hα3β4 nAChRs [3]; COB series): −2.2
- selectivity for Hα4β2 nAChRs over Hα3β4 nAChRs (in words) (Hα4β2 nAChRs [4]): nonselective
- nH, Hill coefficient, Hα4β2 nAChRs (Hα4β2 nAChRs [4]; COB series): −1.3
- fold more potent than lead molecule KAB-18 (Hα4β2 nAChRs [4]): 2 fold

SMILES: O=C(NCc1cccc2ccccc12)c1ccccc1-c1ccccc1 [COB-172]
- nH, Hill coefficient, Hα3β4 nAChRs (Hα3β4 nAChRs [3]; COB series): −0.4
- selectivity for Hα4β2 nAChRs over Hα3β4 nAChRs (in words) (Hα4β2 nAChRs [4]): maintained selectivity for Hα4β2 nAChRs
- nH, Hill coefficient, Hα4β2 nAChRs (Hα4β2 nAChRs [4]; COB series): −0.7
- change in potency on Hα4β2 nAChRs (in words) (Hα4β2 nAChRs [4]; compared to lead molecule KAB-18): no change in potency; also recorded: maintained potency

SMILES: O=C(Nc1ccccn1)c1ccccc1-c1ccccc1 [COB-173]
- nH, Hill coefficient, Hα3β4 nAChRs (Hα3β4 nAChRs [3]; COB series): −0.9
- selectivity for Hα4β2 nAChRs over Hα3β4 nAChRs (in words) (Hα4β2 nAChRs [4]): nonselective
- nH, Hill coefficient, Hα4β2 nAChRs (Hα4β2 nAChRs [4]; COB series): −1.0

SMILES: O=C(Nc1ccncn1)c1ccccc1-c1ccccc1 [COB-174]
- nH, Hill coefficient, Hα3β4 nAChRs (Hα3β4 nAChRs [3]; COB series): −0.9
- selectivity for Hα4β2 nAChRs over Hα3β4 nAChRs (in words) (Hα4β2 nAChRs [4]): nonselective
- nH, Hill coefficient, Hα4β2 nAChRs (Hα4β2 nAChRs [4]; COB series): −1.5

SMILES: O=C(Nc1cccc2ccccc12)c1ccccc1-c1ccccc1 [COB-175]
- nH, Hill coefficient, Hα3β4 nAChRs (Hα3β4 nAChRs [3]; COB series): −1.2
- nH, Hill coefficient, Hα4β2 nAChRs (Hα4β2 nAChRs [4]; COB series): −0.8
- fold preference for Hα4β2 nAChRs (Hα4β2 nAChRs [4]; over Hα3β4 nAChRs): 2 fold

SMILES: O=C(OC1CCCN(CCCc2ccccc2)C1)c1ccccc1-c1ccccc1 (centres unmarked) [DDR-14]
- nH, Hill coefficient, Hα3β4 nAChRs (Hα3β4 nAChRs [1]): −1.4
- nH, Hill coefficient, Hα4β2 nAChRs (Hα4β2 nAChRs [2]): −1.6

SMILES: O=C(OCC1CCCN(CCCc2ccccc2)C1)c1ccccc1-c1cccc2ccccc12 (centres unmarked) [FFB-1]
- IC50 (Hα3β4 nAChRs [3]): 178 µM
- Obs. [SI] QSSR (Hα4β2/Hα3β4) (Hα4β2 nAChRs [4]; training set, selectivity Hα4β2 vs Hα3β4): 1.29

SMILES: O=C(OC1CCCN(C(=O)CCc2ccccc2)C1)c1ccccc1-c1ccccc1 (centres unmarked) [IMB-132]
- nH, Hill coefficient, Hα3β4 nAChRs (Hα3β4 nAChRs [3]; IMB series): −1.6
- fold decrease in potency on Hα3β4 nAChRs compared to scaffold molecule (Hα3β4 nAChRs [3]; compared to DDR-14): 2 fold
- IC50 (Hα4β2 nAChRs [4]): 2.7 µM
- nH, Hill coefficient, Hα4β2 nAChRs (Hα4β2 nAChRs [4]; IMB series): −1.6

SMILES: O=C(OCC1CCCN(C(=O)CCc2ccccc2)C1)c1ccccc1C(F)(F)F (centres unmarked) [IMB-134]
- nH, Hill coefficient, Hα3β4 nAChRs (Hα3β4 nAChRs [3]; IMB series): −2.1
- change in potency on Hα3β4 nAChRs compared to scaffolds (in words) (Hα3β4 nAChRs [3]): no change in potency
- nH, Hill coefficient, Hα4β2 nAChRs (Hα4β2 nAChRs [4]; IMB series): −1.5

SMILES: O=C(OCC1CCN(C(=O)CCc2ccccc2)CC1)c1ccccc1-c1ccccc1 [IMB-135]
- nH, Hill coefficient, Hα3β4 nAChRs (Hα3β4 nAChRs [3]; IMB series): −1.5
- change in potency on Hα3β4 nAChRs compared to scaffolds (in words) (Hα3β4 nAChRs [3]): no change in potency

SMILES: O=C(OCC1CCCN(CCCc2ccccc2)C1)c1ccccc1-c1ccccc1 (centres unmarked) [KAB-18]
- nH, Hill coefficient, Hα4β2 nAChRs (Hα4β2 nAChRs [2]): −1.4

SMILES: O=C(OCC1CCCN(CCCc2ccccc2)C1)c1ccccc1C(F)(F)F (centres unmarked) [KAB-24]
- nH, Hill coefficient, Hα3β4 nAChRs (Hα3β4 nAChRs [1]): −0.8
- nH, Hill coefficient, Hα4β2 nAChRs (Hα4β2 nAChRs [2]): −0.8

SMILES: CNC1(C)C2CCC(C2)C1(C)C (centres unmarked) [Mecamylamine]
- abstinence [5]: 40%
